Experimental data reported in patent US9505772B2, “Aromatic ring compound” (TAKEDA PHARMACEUTICAL COMPANY LIMITED, priority 2012, dated 2016).

Assays:
human MCHR1 [1] = biological target: T1, human MCHR1 (Homo sapiens, UniProt Q99705); assay: Human MCH receptor 1 (MCHR1) binding inhibitory activity, binding assay with [125I]-MCH(4-19); conditions: test compound 0.1 μM, human MCHR1-expressing CHO cell membrane fraction, read-out: Binding inhibition rate % (0.1 μM)
T1 construct: expressed in transfected cells; host or cells: CHO cell clone 57 (described in WO01/82925); membrane fraction
Experimental: Determination of Human MCH Receptor 1 (MCHR1) Binding Inhibitory Activity of Test Compound Using Binding Assay
1. Preparation of Membrane Fraction
Using human MCHR1(=SLC-1 receptor)-expressing CHO cell clone 57 described in WO01/82925, MCHR1-expressing CHO cellular membrane fractions were prepared by the following method.
In phosphate buffered saline (pH 7.4) supplemented with 5 mM EDTA (ethylenediaminetetraacetic acid) were respectively suspended human MCHR1-expressing CHO cells (1×10^8 cells) and centrifuged. Homogenate buffer (10 mL, 10 mM NaHCO3, 5 mM EDTA, pH 7.5, 0.5 mM PMSF (phenylmethylsulfonyl fluoride), 20 mg/L leupeptin, 4 mg/L E-64, 1 mg/L pepstatin A) was added to the pellets of the cells and, using Polytron Homogenizer, the mixture was homogenated. The supernatant obtained after centrifugation at 400×g for 10 min was further centrifuged at 100,000×g for 1 hr to give precipitate of the membrane fraction. The precipitate were suspended in 2 mL of assay buffer [20 mM Tris-HCl (pH 7.5), 5 mM EDTA, 0.5 mM PMSF, 20 mg/L leupeptin, 4 mg/L E-64, 1 mg/L pepstatin A]. The membrane fractions were suspended in assay buffer to a protein concentration of 2 mg/mL, and after dispensing, preserved at −80° C. and used upon thawing each time when in use.
The MCHR1 ligand binding inhibitory activity of the test compound was determined as follows.
An MCHR1-expressing CHO cellular membrane fraction (173 μL) diluted with an assay buffer was dispensed to a 96 well polypropylene plate (3363, Corning). DMSO solution (2 μL), 33 μM cold MCH(1-19) diluted with DMSO solution (2 μL), or a test compound solution diluted with DMSO solution to various concentrations (2 μL) was added, and lastly, [^125I]-MCH(4-19) diluted with assay buffer (hereinafter, sometimes to be referred to as “hot MCH”, 25 μL) was added to each well. The mixture was reacted with stirring at room temperature for 1 hr, and the plate was set on FilterMate Harvester (PerkinElmer). Using a treating glass filter plate (GF/C, PerkinElmer) with polyethyleneimine, which had been previously set, the plate was suction-filtered and washed three times with washing buffer (50 mM Tris-HCl buffer pH 7.5). The glass filter plate was dried, MicroScinti0 (PerkinElmer) was added at 25 μL/well, and the resulting radioactivity was measured by TopCount liquid scintillation counter (PerkinElmer). The binding inhibition rate of the test compound was calculated by the following formula. Binding inhibition (%)=100−(radioactivity upon addition of test compound and hot MCH−radioactivity upon addition of cold MCH and hot MCH solution)/(radioactivity upon addition of DMSO solution and hot MCH−radioactivity upon addition of cold MCH and hot MCH solution)×100
The binding inhibition rates (%) of test compounds (0.1 μM) as measured using human MCHR1-expressing CHO cell are shown in Table 2.

human MCHR1 [2] = biological target: T1, human MCHR1; assay: MCH receptor 1 antagonistic activity, Ca2+ mobilization assay; format: cell-based; conditions: test compound 0.1 μM; human MCHR1-expressing CHO cells (clone #4); MCH(4-19) 2 nM; read-out: Inhibition rate % (0.1 μM)
Experimental: Measurement of MCH Receptor 1 Antagonistic Activity of Test Compound Using Ca^2+ Mobilization Assay
Using an expression vector plasmid introduced with human MCHR1 gene for expression in animal cells, human MCHR1 gene was introduced into CHO cells (CHO dhfr^−) by Lipofectamine LTX (Invitrogen). The cells were cultured in selection MEMα medium [445 mL of MEMα medium without nucleic acid and added with 5 mL of Penicillin-Streptomycin (Invitrogen) and 50 mL of dialyzed fetal bovine serum]. Colony 24 clones grown in the selection medium, which were human MCHR1 gene-expressing CHO cell candidates, were selected. […] In the following test, this human MCHR1-expressing CHO cell (clone #4) was used. An integrated dispensing function fluorometer (CellLux, PerkinElmer) was used for Ca^2+ mobilization assay. The CHO cells were sown in a 96 well plate (type 3904, Corning) with a black wall and clear well bottom at a density of 20000 cells/well, and cultured in an incubator for about 24 hr at 5% CO2, 37° C. The medium was removed, and the cells were washed with phosphate buffered saline (PBS). A Ca^2+ indicator dye reagent (DOJINDO LABORATORIES, Ca screening no-wash kit Fluo4) was added at 100 μL/well, and the dye was allowed to penetrate into the cell for 30 min in an incubator at 5% CO2, 37° C. The plate was set on a plate reader. First, a test compound solution diluted with an assay buffer [10 mM HEPES (pH 7.4), 1× assay buffer containing 0.1% BSA (DOJINDO LABORATORIES, attached to Ca screening no-wash kit Fluo4)] or DMSO solution was added at 50 μL/well, and then ligand MCH (4-19) peptide (final concentration 2 nM) diluted with assay buffer or DMSO was added at 50 μL/well, during which changes in intracellular fluorescence were measured at 2 second intervals. The antagonistic activity of the test compound was calculated by the following formula and shown as an inhibition rate (%) wherein the intracellular fluorescence activity resulting from the stimulation by the addition of ligand MCH (4-19) peptide was 100% and that of the well added with DMSO solution alone was 0%. inhibitory rate (%)=100−[fluorescence activity upon addition of test compound and MCH(4-19) peptide solution−fluorescence activity upon addition of DMSO solution only]/[fluorescence activity upon addition of DMSO solution and MCH(4-19) peptide solution−fluorescence activity upon addition of DMSO solution only]×100
The inhibition rates (%) of test compounds (0.1 μM) as antagonist activity measured using human MCHR1-expressing CHO cells (clone #4) are shown in the following Table 3.

T1 sequence (Q99705 whole entry): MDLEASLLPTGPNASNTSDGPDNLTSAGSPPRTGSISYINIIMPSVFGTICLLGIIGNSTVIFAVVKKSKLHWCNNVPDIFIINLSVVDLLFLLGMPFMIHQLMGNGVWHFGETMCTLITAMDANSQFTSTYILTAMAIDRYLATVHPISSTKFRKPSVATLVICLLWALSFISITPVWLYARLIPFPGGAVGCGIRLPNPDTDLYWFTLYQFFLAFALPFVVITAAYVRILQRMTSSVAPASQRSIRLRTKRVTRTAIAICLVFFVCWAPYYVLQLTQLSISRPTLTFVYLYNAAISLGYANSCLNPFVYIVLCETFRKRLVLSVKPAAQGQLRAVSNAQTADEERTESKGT

SMILES	inhibition at 0.1 µM (human MCHR1 [1])	inhibition at 0.1 µM (human MCHR1 [2])
COc1cc(-n2ccc3oc(-c4ccc(Cl)cc4)cc3c2=O)ccc1OCC1COC1 [Example 40, 2-(4-Chlorophenyl)-5-(3-methoxy-4-(oxetan-3-ylmethoxy)phenyl)furo[3,2-c]pyridin-4(5H)-one]	91%	95%
COc1cc(-n2ccc3oc(-c4ccc(F)cc4)cc3c2=O)ccc1OCC1(C#N)CC1 [Example 10, 1-((4-(2-(4-Fluorophenyl)-4-oxofuro[3,2-c]pyridin-5(4H)-yl)-2-methoxyphenoxy)methyl)cyclopropanecarbonitrile]	83%	86%
COc1ccc(-c2cc3c(=O)n(-c4ccc(OCC5(C#N)CC5)c(OC)c4)ccc3o2)cc1 [Example 16, 1-((2-Methoxy-4-(2-(4-methoxyphenyl)-4-oxofuro[3,2-c]pyridin-5(4H)-yl)phenoxy)methyl)cyclopropanecarbonitrile]	79%	97%
COc1cc(-n2ccc3oc(-c4ccc(Cl)s4)cc3c2=O)ccc1OCC1(C#N)CC1 [Example 12, 1-((4-(2-(5-Chloro-2-thienyl)-4-oxofuro[3,2-c]pyridin-5(4H)-yl)-2-methoxyphenoxy)methyl)cyclopropanecarbonitrile]	53%	64%
COc1cc(-n2ccc3oc(-c4ccc(Cl)cn4)cc3c2=O)ccc1OCC1(C#N)CC1 [Example 19, 1-((4-(2-(5-Chloropyridin-2-yl)-4-oxofuro[3,2-c]pyridin-5(4H)-yl)-2-methoxyphenoxy)methyl)cyclopropanecarbonitrile]	77%	88%
COc1cc(-n2ccc3oc(-c4ccc(OC(F)(F)F)cc4)cc3c2=O)ccc1OCC1(C#N)CC1 [Example 28, 1-((2-Methoxy-4-(4-oxo-2-(4-(trifluoromethoxy)phenyl)furo[3,2-c]pyridin-5(4H)-yl)phenoxy)methyl)cyclopropanecarbonitrile]	63%	24%
COc1cc(-n2ccc3oc(-c4ccc(Cl)cc4)cc3c2=O)cnc1OCC1(C#N)CC1 [Example 23, 1-(((5-(2-(4-Chlorophenyl)-4-oxofuro[3,2-c]pyridin-5(4H)-yl)-3-methoxypyridin-2-yl)oxy)methyl)cyclopropanecarbonitrile]	73%	72%
COc1cc(-n2ccc3oc(-c4ccc(Cl)cc4)cc3c2=O)ccc1OCC1CC1(F)F (stereo not shown) [Example 44, 2-(4-Chlorophenyl)-5-(4-((2,2-difluorocyclopropyl)methoxy)-3-methoxyphenyl)furo[3,2-c]pyridin-4(5H)-one]	85%	45%
